In US20210024649A1, “Methods and Compositions for Antibody and Antibody-loaded Dendritic Cell Mediated Therapy” (The Board of Trustees of the Leland Stanford Junior …, priority 2014, published 2021):

System: tumor-associated DC (TADC)
Assay: TADC cultured with alloIgG-IC with or without stimuli
Format: cell-based, mouse
Settings: stimulus added to TADC with alloIgG-IC
Protocol: BM mononuclear cells were negatively selected using a murine monocyte enrichment kit (Stem Cell Technologies, Vancouver Canada), and FSC^lo/SSC^lo/Gr1^hi/CD115^hi/MHCII^neg cells were sorted with a FACS Aria II (BD Biosciences). Monocytes were cultured for 4-5 days in the presence of 50 ng/ml GM-CSF (PeproTech) to generate DC. For TADC, tumors were digested in Hank's balanced salt solution (HBSS, Gibco) containing 5 mg/mL collagenase IV and 0.01 mg/mL DNase I (Sigma). Cells were applied on a Ficoll gradient and magnetically enriched using CD11b^+ selection kits (StemCells) and Gr1^neg/CD11c^+/MHCII^+ cells were sorted by FACS. In some experiments TADC were activated with 50 ng/mL TNFα (PeproTech) and 500 ng/mL CD40L (PeproTech) recombinant mouse proteins.
To resolve this apparent discrepancy, tumor-associated DC (TADC) (FIG. 7a) were obtained and cultured these cells with tumor lysates or alloIgG-IC. […] Since the expression pattern of Fcγ receptors on TADC was similar to that of BMDC, and several immune stimuli are known to induce MAPK activation in DC, the effect of such stimuli on the response of TADC to allogG-IC was tested.

polyinosinic:polycytidylic acid [poly I:C]
activation of TADC and uptake of alloIgG-IC: enabled activation of TADC as well as uptake of alloIgG-IC
